Data: US7365085B2, “Compounds and methods” (SmithKline Beecham Corporation, priority 2002, dated 2008)

Legend:
[1] = biological target: T1, human LXRβ ligand binding domain (Homo sapiens, UniProt P55055); experiment: Ligand Sensing Assay (LiSA) for LXRβ agonist activity (recruitment of SRC1-derived peptide); type: biochemical; settings: 1 μM; over a background reading of 10000 fluorescence units
T1 construct: made in house; host or cells: E. coli BL21 (DE3), vector pRSETa
T1 sequence (P55055 184-460 limits assumed): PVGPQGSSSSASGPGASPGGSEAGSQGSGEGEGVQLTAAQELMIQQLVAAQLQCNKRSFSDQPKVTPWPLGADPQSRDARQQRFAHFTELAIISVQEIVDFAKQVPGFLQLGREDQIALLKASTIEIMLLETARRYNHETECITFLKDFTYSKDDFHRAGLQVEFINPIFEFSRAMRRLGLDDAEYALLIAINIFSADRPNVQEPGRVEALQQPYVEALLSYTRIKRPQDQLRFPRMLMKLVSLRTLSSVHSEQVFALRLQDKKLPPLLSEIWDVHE
T1 sequence (Q15788 676-700 partner limits assumed): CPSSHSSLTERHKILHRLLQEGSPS
Source text: The term “LXR modulator,” as used herein, means a small molecule that modulates the biological activities of LXRα and/or LXRβ. More specifically, such an LXR modulator either enhances or inhibits the biological activities of LXR. If such a modulator partially or completely enhances the biological activities of LXR, it is a partial or complete LXR agonist, respectively. […] Preferably, the LXR modulator compounds of this invention are LXR agonists. As used herein, the term “LXR agonist” refers to compounds which achieve at least 20% activation of LXR relative to 24(S),25-epoxycholesterol, the appropriate positive control in the HTRF assay described below in Test Method 1. It should be noted that to show activity in the specific Test Methods described herein, the LXR modulator compound must bind to the LXR nuclear receptor and recruit the specific peptide derived from the coactivator protein, SRC1, to the modulator compound-bound LXR complex. […]
Typically 25-50 g of cell paste is resuspended in 250-500 mL TBS, pH 8.0 (25 mM Tris, 150 mM NaCl). […] After washing to baseline absorbance with equilibration buffer, the column is washed with approximately one column volume of TBS pH […] containing 95 mM imidazole. […] Afterwashing to baseline absorbance with the dilution buffer the protein is eluted with a gradient from 50-500 mM NaCl. […]

[2] = biological target: T2, LXRα ligand binding domain (Homo sapiens, UniProt Q13133); experiment: Ligand Sensing Assay for LXRα agonist activity; type: biochemical; settings: 1 μM; over a background reading of 10000 fluorescence units
T2 construct: His tag; made in house
T2 sequence (Q13133 183-447): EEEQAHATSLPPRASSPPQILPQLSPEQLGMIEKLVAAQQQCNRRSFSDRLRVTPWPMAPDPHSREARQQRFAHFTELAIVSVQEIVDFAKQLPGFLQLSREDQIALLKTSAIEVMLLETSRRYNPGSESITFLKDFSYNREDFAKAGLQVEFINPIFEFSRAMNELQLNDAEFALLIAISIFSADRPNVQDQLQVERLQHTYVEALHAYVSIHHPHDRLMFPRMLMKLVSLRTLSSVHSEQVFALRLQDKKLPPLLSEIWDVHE
T2 sequence (Q15788 676-700 partner): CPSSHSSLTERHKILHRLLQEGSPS
Procedure: Test Method 2: Ligand Sensing Assay for LXRα Agonist Activity
The assay for LXRα was run according to the procedures of Test Method 1, above using his-tagged LXRα ligand binding domain (amino acids 183-447 of Genbank accession number U22662, with the 14th amino acid corrected to A from R). In this assay 1 μM 24(S),25-epoxycholesterol gave a reading of 20000 fluorescence units over a background reading of 10000 fluorescence units.

## C[C@H](CC[C@@H]1OC1(C)C)[C@H]1CC[C@H]2[C@@H]3CC=C4C[C@@H](O)CC[C@]4(C)[C@H]3CC[C@]12C [24(S),25-epoxycholesterol]
[1]
  reading: 20000 fluorescence units
[2]
  reading: 20000 fluorescence units
